Experimental findings from patent US20210138025A1, “CATIONIC PEPTIDES WITH IMMUNOMODULATORY AND/OR ANTI-BIOFILM ACTIVITIES” (priority 2018, published 2021) are described below.

Non-standard residues stand in square brackets, D forms with d. No end group written: not given here. hArg = N=C(N)NCCCC[C@H](N)C(=O)O; Agb = N=C(N)NCC[C@H](N)C(=O)O; Agp = N=C(N)NC[C@H](N)C(=O)O; Orn = NCCC[C@H](N)C(=O)O; Dab = NCC[C@H](N)C(=O)O; Dap = NC[C@H](N)C(=O)O

The test system of one assay is S. aureus (MRSA SAP0017). Format: cell-based, Staphylococcus aureus. The conditions noted are these: SPOT synthesized control peptides, determined as in Table 5; Table 7. The procedure:
Methods of assessment of anti-biofilm activity: MRSA S. aureus strain SAP0017 biofilm formation was initially analyzed using a static abiotic solid surface assay as described elsewhere (de la Fuente-Nunez et al., 2012) and shown graphically in FIG. 2. Dilutions (1/100) of overnight cultures were incubated in BM2 biofilm-adjusted medium [62 mM potassium phosphate buffer (pH 7), 7 mM (NH4)2SO4, 2 mM MgSO4, 10 μM FeSO4, 0.4% (wt/vol) glucose, 0.5% (wt/vol) Casamino Acids], or a nutrient rich medium such as Tryptic soy broth supplemented with 1% glucose, in polypropylene microtiter plates (Falcon, United States) in the absence (control) or presence of peptide. Peptide was added at time zero (prior to adding the diluted, overnight cultures) in varying concentrations, and the amount biofilm formation was recorded after 22-46 h incubation for most bacteria. To quantify biofilm growth, planktonic cells were removed and biofilm cells adhering to the side of the wells were stained with crystal violet, and absorbance at 595 nm was measured using a microtiter plate reader (Bio-Tek Instruments Inc., United States).
In the case of “C110 (VRLIVAVR[Orn]WRR-NH2; N-terminus assumed; SMILES CC[C@H](C)[C@H](NC(=O)[C@H](CC(C)C)NC(=O)[C@H](CCCNC(=N)N)NC(=O)[C@@H](N)C(C)C)C(=O)N[C@H](C(=O)N[C@@H](C)C(=O)N[C@H](C(=O)N[C@@H](CCCNC(=N)N)C(=O)N[C@@H](CCCN)C(=O)N[C@@H](Cc1c[nH]c2ccccc12)C(=O)N[C@@H](CCCNC(=N)N)C(=O)N[C@@H](CCCNC(=N)N)C(N)=O)C(C)C)C(C)C) [Peptide C110]”, the “% Biofilm Inhibition” value is 100%.

C88 (VR[Dap]IVAVRIWRR) [Peptide C88]: the “% Biofilm Inhibition” value came to 104%.

Consider “C76 (VRLIVAVR[Agb]WRR; not fully specified (C-terminus); printed as VRLIVAVRGbutWRR) [Peptide C76]”, for which the “% Biofilm Inhibition” value stood at 104%.

On to C87 (V[Dap]LIVAVRIWRR) [Peptide C87], for which the “% Biofilm Inhibition” value came out at 73%.

For C70 (VR[Agb]IVAVRIWRR) [Peptide C70], the “% Biofilm Inhibition” value came out at 98%.

“C97 (VRL[Dab]VAVRIWRR; not fully specified (C-terminus)) [Peptide C97]”: the “% Biofilm Inhibition” value is reported as 102%.

Turning to “C106 (VR[Orn]IVAVRIWRR-NH2; N-terminus assumed; SMILES CC[C@H](C)[C@H](NC(=O)[C@H](CCCNC(=N)N)NC(=O)[C@@H](NC(=O)[C@H](C)NC(=O)[C@@H](NC(=O)[C@@H](NC(=O)[C@H](CCCN)NC(=O)[C@H](CCCNC(=N)N)NC(=O)[C@@H](N)C(C)C)[C@@H](C)CC)C(C)C)C(C)C)C(=O)N[C@@H](Cc1c[nH]c2ccccc12)C(=O)N[C@@H](CCCNC(=N)N)C(=O)N[C@@H](CCCNC(=N)N)C(N)=O) [Peptide C106]”, the “% Biofilm Inhibition” value stood at 104%.

With C81 (VR[hArg]IVAVRIWRR) [Peptide C81], the “% Biofilm Inhibition” value was 107%.

C82 (VRL[hArg]VAVRIWRR) [Peptide C82]: the “% Biofilm Inhibition” value is reported as 106%.

Regarding “C103 (VRLIVAVRI[Dab]RR-NH2; N-terminus assumed; SMILES CC[C@H](C)[C@H](NC(=O)[C@H](CCCNC(=N)N)NC(=O)[C@@H](NC(=O)[C@H](C)NC(=O)[C@@H](NC(=O)[C@@H](NC(=O)[C@H](CC(C)C)NC(=O)[C@H](CCCNC(=N)N)NC(=O)[C@@H](N)C(C)C)[C@@H](C)CC)C(C)C)C(C)C)C(=O)N[C@@H](CCN)C(=O)N[C@@H](CCCNC(=N)N)C(=O)N[C@@H](CCCNC(=N)N)C(N)=O) [Peptide C103]”, the “% Biofilm Inhibition” value is given as 102%.

Regarding C86 (VRLIVAVRI[hArg]RR) [Peptide C86], the “% Biofilm Inhibition” value stood at 75%.

In the case of “C102 (VRLIVAVR[Dab]WRR-NH2; N-terminus assumed; SMILES CC[C@H](C)[C@H](NC(=O)[C@H](CC(C)C)NC(=O)[C@H](CCCNC(=N)N)NC(=O)[C@@H](N)C(C)C)C(=O)N[C@H](C(=O)N[C@@H](C)C(=O)N[C@H](C(=O)N[C@@H](CCCNC(=N)N)C(=O)N[C@@H](CCN)C(=O)N[C@@H](Cc1c[nH]c2ccccc12)C(=O)N[C@@H](CCCNC(=N)N)C(=O)N[C@@H](CCCNC(=N)N)C(N)=O)C(C)C)C(C)C) [Peptide C102]”, the “% Biofilm Inhibition” value was found to be 104%.

Turning to C89 (VRL[Dap]VAVRIWRR) [Peptide C89], the “% Biofilm Inhibition” value came out at 99%.

C83 (VRLI[hArg]AVRIWRR) [Peptide C83]: the “% Biofilm Inhibition” value is given as 106%.

With C85 (VRLIVAVR[hArg]WRR) [Peptide C85], the “% Biofilm Inhibition” value was 99%.

On to C94 (VRLIVAVR[Dap]WRR) [Peptide C94], for which the “% Biofilm Inhibition” value is 92%.

Consider “C71 (VRL[Agb]VAVRIWRR; not fully specified (C-terminus); printed as VRLGbutVAVRIWRR) [Peptide C71]”, for which the “% Biofilm Inhibition” value stood at 103%.

For “C99 (VRLIV[Dab]VRIWRR; not fully specified (C-terminus)) [Peptide C99]”, the “% Biofilm Inhibition” value is on record as 100%.

As for “C60 (VRL[Agp]VAVRIWRR-NH2; N-terminus assumed; SMILES CC[C@H](C)[C@H](NC(=O)[C@H](CCCNC(=N)N)NC(=O)[C@@H](NC(=O)[C@H](C)NC(=O)[C@@H](NC(=O)[C@H](CNC(=N)N)NC(=O)[C@H](CC(C)C)NC(=O)[C@H](CCCNC(=N)N)NC(=O)[C@@H](N)C(C)C)C(C)C)C(C)C)C(=O)N[C@@H](Cc1c[nH]c2ccccc12)C(=O)N[C@@H](CCCNC(=N)N)C(=O)N[C@@H](CCCNC(=N)N)C(N)=O) [Peptide C60]”, the “% Biofilm Inhibition” value was 104%.

As for C80 (V[hArg]LIVAVRIWRR) [Peptide C80], the “% Biofilm Inhibition” value was 99%.

In the case of “C72 (VRLI[Agb]AVRIWRR; not fully specified (C-terminus); printed as VRLIGbutAVRIWRR) [Peptide C72]”, the “% Biofilm Inhibition” value stood at 105%.

Turning to C79 (VRLIVAVRIWR[Agb]) [Peptide C79], the “% Biofilm Inhibition” value came out at 72%.

As to C58 (V[Agp]LIVAVRIWRR) [Peptide C58], the “% Biofilm Inhibition” value is 96%.

For “C75 (VRLIVAV[Agb]IWRR; not fully specified (C-terminus); printed as VRLIVAVGbutIWRR) [Peptide C75]”, the “% Biofilm Inhibition” value stood at 103%.

As for C111 (VRLIVAVRI[Orn]RR) [Peptide C111], the “% Biofilm Inhibition” value was 92%.

For “C61 (VRLI[Agp]AVRIWRR-NH2; N-terminus assumed; SMILES CC[C@H](C)[C@H](NC(=O)[C@H](CC(C)C)NC(=O)[C@H](CCCNC(=N)N)NC(=O)[C@@H](N)C(C)C)C(=O)N[C@@H](CNC(=N)N)C(=O)N[C@@H](C)C(=O)N[C@H](C(=O)N[C@@H](CCCNC(=N)N)C(=O)N[C@H](C(=O)N[C@@H](Cc1c[nH]c2ccccc12)C(=O)N[C@@H](CCCNC(=N)N)C(=O)N[C@@H](CCCNC(=N)N)C(N)=O)[C@@H](C)CC)C(C)C) [Peptide C61]”, the “% Biofilm Inhibition” value turned out to be 101%.

C66 (VRLIVAVRI[Agp]RR) [Peptide C66]: the “% Biofilm Inhibition” value was found to be 107%.

For the substance “C84 (VRLIVA[hArg]RIWRR; not fully specified (C-terminus)) [Peptide C84]”, the “% Biofilm Inhibition” value was determined as 105%.

Regarding “C77 (VRLIVAVRI[Agb]RR; not fully specified (C-terminus); printed as VRLIVAVRIGbutRR) [Peptide C77]”, the “% Biofilm Inhibition” value came out at 101%.

Consider C74 (VRLIVA[Agb]RIWRR) [Peptide C74], for which the “% Biofilm Inhibition” value turned out to be 106%.

As for C92 (VRLIVA[Dap]RIWRR) [Peptide C92], the “% Biofilm Inhibition” value worked out at 103%.

On to “C98 (VRLI[Dab]AVRIWRR; not fully specified (C-terminus)) [Peptide C98]”, for which the “% Biofilm Inhibition” value came out at 103%.

On to C62 (VRLIV[Agp]VRIWRR) [Peptide C62], for which the “% Biofilm Inhibition” value is 106%.

Regarding C68 (VRLIVAVRIWR[Agp]) [Peptide C68], the “% Biofilm Inhibition” value is reported as 106%.

As for C107 (VRL[Orn]VAVRIWRR) [Peptide C107], the “% Biofilm Inhibition” value was 71%.

For C65 (VRLIVAVR[Agp]WRR) [Peptide C65], the “% Biofilm Inhibition” value is on record as 107%.

Staying with this assay, now noted: SPOT synthesized peptide, ~12.5 μM, clinical MRSA strain, crystal violet assay.
With “VRLIVOrnVRIWRR (VRLIV[Orn]VRIWRR-NH2; N-terminus assumed; SMILES CC[C@H](C)[C@H](NC(=O)[C@H](CCCNC(=N)N)NC(=O)[C@@H](NC(=O)[C@H](CCCN)NC(=O)[C@@H](NC(=O)[C@@H](NC(=O)[C@H](CC(C)C)NC(=O)[C@H](CCCNC(=N)N)NC(=O)[C@@H](N)C(C)C)[C@@H](C)CC)C(C)C)C(C)C)C(=O)N[C@@H](Cc1c[nH]c2ccccc12)C(=O)N[C@@H](CCCNC(=N)N)C(=O)N[C@@H](CCCNC(=N)N)C(N)=O) [Peptide 1018-k30]”, the “% Residual MRSA biofilm growth compared to untreated control” value (“% Residual MRSA biofilm growth” below) was 27%.

“HarRLIVAVRIWRR ([hArg]RLIVAVRIWRR-NH2; N-terminus assumed; SMILES CC[C@H](C)[C@H](NC(=O)[C@H](CCCNC(=N)N)NC(=O)[C@@H](NC(=O)[C@H](C)NC(=O)[C@@H](NC(=O)[C@@H](NC(=O)[C@H](CC(C)C)NC(=O)[C@H](CCCNC(=N)N)NC(=O)[C@@H](N)CCCCNC(=N)N)[C@@H](C)CC)C(C)C)C(C)C)C(=O)N[C@@H](Cc1c[nH]c2ccccc12)C(=O)N[C@@H](CCCNC(=N)N)C(=O)N[C@@H](CCCNC(=N)N)C(N)=O) [Peptide 1018-r25]”: the “% Residual MRSA biofilm growth” value was found to be 64%.

Take “VRLIVAVOrnIWRR (VRLIVAV[Orn]IWRR-NH2; N-terminus assumed; SMILES CC[C@H](C)[C@H](NC(=O)[C@H](CCCN)NC(=O)[C@@H](NC(=O)[C@H](C)NC(=O)[C@@H](NC(=O)[C@@H](NC(=O)[C@H](CC(C)C)NC(=O)[C@H](CCCNC(=N)N)NC(=O)[C@@H](N)C(C)C)[C@@H](C)CC)C(C)C)C(C)C)C(=O)N[C@@H](Cc1c[nH]c2ccccc12)C(=O)N[C@@H](CCCNC(=N)N)C(=O)N[C@@H](CCCNC(=N)N)C(N)=O) [Peptide 1018-k32]”: the “% Residual MRSA biofilm growth” value is reported as 46%.

For the substance “RQVRVKRWRARW (RQVRVKRWRARW-NH2) [Mmax-18]”, the “% Residual MRSA biofilm growth” value is listed as 100%.

With “VRLIVAVRIWOrnR (VRLIVAVRIW[Orn]R-NH2; N-terminus assumed; SMILES CC[C@H](C)[C@H](NC(=O)[C@H](CCCNC(=N)N)NC(=O)[C@@H](NC(=O)[C@H](C)NC(=O)[C@@H](NC(=O)[C@@H](NC(=O)[C@H](CC(C)C)NC(=O)[C@H](CCCNC(=N)N)NC(=O)[C@@H](N)C(C)C)[C@@H](C)CC)C(C)C)C(C)C)C(=O)N[C@@H](Cc1c[nH]c2ccccc12)C(=O)N[C@@H](CCCN)C(=O)N[C@@H](CCCNC(=N)N)C(N)=O) [Peptide 1018-k35]”, the “% Residual MRSA biofilm growth” value worked out at 34%.
